Square brackets hold non-standard residues; d marks the D form. Ends that are not written are not given here.
Experiments:
E. coli ML-35P = test: Radial diffusion assay in agarose gels, E. coli; type: cell-based
[1] = test system: Listeria monocytogenes, strain EGD; test: Radial diffusion assay in agarose gels, L. monocytogenes; type: cell-based
Description: Aliquots (66 μl) of each fraction were dried by vacuum centrifugation and resuspended in 6.6 μl of 0.01% acetic acid. Five μl samples of this concentrate were tested for antimicrobial activity against E. coliML-3, L. monocytogenes, strain EGD and C. albicans, strain 820, using radiodiffusion and gel overlay techniques as described by Lehrer, R. I. et al. J Immunol Meth (1991) 137:167-173. […] The units of activity in the radial diffusion assay were measured as described; 10 units correspond to a 1 mm diameter clear zone around the sample well. Activity was found in a large number of fractions.
The radial diffusion assay in agarose gels described in Example 1 was also used to test the activity of the purified protegrins. FIGS. 4a, 4b and 4c show the results against three test organisms in units described as above.
The antimicrobial activity of the linearalized forms was also compared with that of the native protegrins. Both linearalized and cyclic forms of the protegrins tested continue to show antimicrobial activity, although the effectiveness of these peptides as antimicrobials depends on the nature of the target organism and on the test conditions. The antimicrobial activity of native PG-1 and its linearalized form (cam-PG-1) and PG-3 and its linearalized form (cam-PG-3) were tested according to the procedure set forth in Example 1 as described by Lehrer, R. I. et al. J Immunol Meth (1991) 137:167-173.
Using standard solid phase techniques, a protegrin having the amino acid sequence of PG-1, but wherein every amino acid is in the D form was prepared. This form of protegrin was tested against E. coli, L. monocytogenes, C. albicans and other microbes in the absence and presence of protease and otherwise as described for the radiodiffusion assay in agarose gels set forth in Example 1.
The kite and bullet PG-1 compounds prepared in Example 12 were tested for antimicrobial activity using the radial diffusion assay described in Example 1 as published by Lehrer, R. I. et al., J Immunol Meth (1991) 137:167-173, except that the underlay agars contained […] sodium phosphate buffer with a final pH of 7.4. As described in Example 1, 0.3 mg/ml tripticase soy broth powder and 1% agarose were used as well in the underlay agar. In some cases 100 mM NaCl or RPMI plus 2.5% normal human serum (NHS) was added to the agar.

C. albicans, strain 820 = type: cell-based, Candida albicans
Description: Similarly, using C. albicans as a target organism, underlayers were prepared with 10 mM sodium phosphate with and without 10% normal human serum.

[2] = test system: lipid polysaccharide (LPS) of E. coli strain 0.55B5; test: Limulus amebocyte lysate (LAL) test for endotoxin binding; type: biochemical; conditions: LPS 0.05 endotoxin unit/ml
[3] = test system: N. gonorrhoeae strains FA 19 and F 62; conditions: 45 minutes at 37° C.
Description: Nonpiliated transparent variants of strains FA 19 and F 62 were propagated on GCB agar plates containing glucose and iron supplements overnight at 37° C. under 3.8% V/V CO2. These strains were chosen for their adaptability to the assay.
The overnight growth is removed from the agar plate and suspended in GCB broth containing supplements and sodium bicarbonate and grown with shaking at 37° C. to mid log phase. The culture is diluted 1:100 in GCB broth to give about 10^6 CFU/ml and serial dilutions were plated onto GCB agar.
Ten μl of each dilution is added to a sterile polystyrene tube containing 90 μl of diluted bacteria and the tubes are shaken at 37° C. for 45 minutes. The contents are serially diluted 1:10 and plated on to GCB agar plates which are incubated in a CO2 incubator. CFU are counted after 24 hours and the log bactericidal activity calculated.

HIVJR-CSF and HIVJR-FL = test: HIV infection of human peripheral blood mononuclear cells, p24 antigen
Description: Briefly, the mononuclear cell fraction is recovered from normal donor leukopacs from the American Red Cross using a Ficoll-hypaque density gradient. The mononuclear cells are resuspended at 1×10^6 cells per ml in RPMI 1640 medium with 20% fetal bovine serum, 1% penn/strep with fungizone and 0.5% PHA and incubated 24 hours at 37° C. in 5% CO2. The cells are centrifuged, washed and then expanded for 24 hours in growth medium.
Non-laboratory adapted, cloned HIVJR-CSF and HIVJR-FL were electroporated into the human peripheral blood mononuclear cells prepared as described above. Titers were determined and in general, multiplicities of infection (MOI) of about 4,000 infectious units per cell are used (which corresponds to 25-40 picograms per ml HIV p24 antigen in the supernatant).
In the assay, the HIV stocks prepared as above were diluted to the correct MOI and the PBM are added to 24 well plates at a concentration of 2×10^6 per ml. One μl total volume is added to each well. The peptide to be tested is added in growth medium to achieve the final desired concentration. Then the appropriate number of MOI are added. To assay viral growth, 200 μl of supernatant is removed on days 3 and 7 and the concentration of p24 antigen is determined using a commercial assay (Coulter Immunology, Hialeah, Fla.). Controls include duplicate wells containing cells alone, cells plus peptide at 5 μg/ml cells with virus but not peptide and cells with virus in the presence of AZT at 10^−5 M-10^−8 M.

[4] = test system: methicillin resistant Staphylococcus aureus (MRSA); test: Minimal inhibitory concentration, MRSA; type: cell-based
Description: (§1) The minimal inhibitory concentrations (MICs) of a variety of protegrins were determined against the following organisms: methicillin resistant Staphylococcus aureus (MRSA), Pseudomonas aeruginosa (Psa), vancomycin resistant Enterococcus fecium (VREF), Candida albicans (Candid) and Escherichia coli (E. Co), and are shown in Table 9.

[5] = test system: Pseudomonas aeruginosa (Psa); test: Minimal inhibitory concentration, Psa; type: cell-based
Description: as §1

[6] = test system: Candida albicans (Candid); test: Minimal inhibitory concentration, Candida; type: cell-based
Description: as §1

Escherichia coli (E. Co) = test: Minimal inhibitory concentration, E. coli; type: cell-based
Description: as §1

[7] = Radial diffusion assay in 25 mM borate buffer (Table 4); type: cell-based; conditions: buffer (25 mM borate buffer, pH 7.4)
Description: Contact lens solutions are typically formulated with borate buffered physiological saline and may or may not contain EDTA in addition. Protegrins in the form of the synthetic PG-3 amide and synthetic PG acid were tested generally in the assay described in Example 1 wherein all underlay gels contain 25 mM borate buffer, pH […] tryptocase soy broth ([…] TSB powder) and […]. Additions included either 100 mM NaCl, 1 mM EDTA or a combination thereof. Other test compounds used as controls were the defensin NP-1 and lysozyme. Dose response curves were determined.

[8] = test system: Trichomonas vaginallis strain C1 (ATCC 30001); strains MR and TV; test: Trichomonas vaginallis exposure assay; conditions: strains MR and TV; 100 and 50 μg/ml
[9] = radial diffusion, underlay agar pH 6.5

R-G-G-R-L-C-Y-C-R-R-R-F-C-I-C-V (RGGRLCYCRRRFCICV) [PG-2]
antibacterial activity against E. coli (FIG. 4a) (E. coli ML-35P; [9]): effective against the three organisms tested but was not as active as the other two peptides | antibacterial activity against Listeria monocytogenes (FIG. 4b) [1, 9]: effective against the three organisms tested but was not as active as the other two peptides | antifungal activity against Candida albicans (FIG. 4c) (C. albicans, strain 820; [9]): effective against the three organisms tested but was not as active as the other two peptides | gel formation in LAL test ([2]; 1.0 μg peptide in 0.2 ml): no gel | gel formation in LAL test ([2]; 2.5 μg peptide in 0.2 ml): no gel | gel formation in LAL test ([2]; 5 μg peptide in 0.2 ml): no gel | gel formation in LAL test ([2]; 10 μg peptide in 0.2 ml): no gel | reduction in CFU per ml [3]: 2.6 fold | anti-HIV activity level relative to PG-1 (HIVJR-CSF and HIVJR-FL): approximately 5 fold less

R-G-G-G-L-C-Y-A-R-G-W-I-A-F-C-V-G-R (RGGGLCYARGWIAFCVGR-NH2; cysteine pairing not given here) [IB-214]
minimal inhibitory concentration (MIC) MRSA [4]: 2.1 | minimal inhibitory concentration (MIC) Psa [5]: 0.59 | minimal inhibitory concentration (MIC) Candid [6]: 32.6 | minimal inhibitory concentration (MIC) E. Co (Escherichia coli (E. Co)): 0.81

R-G-G-G-L-C-Y-A-R-G-F-I-A-V-C-F-G-R (RGGGLCYARGFIAVCFGR-NH2; not fully specified; printed as R-G-G-G-L-C-Y-A-R-G-F-I-A-V-C-F-G-R; cysteine pairing not given here) [IB-216]
minimal inhibitory concentration (MIC) MRSA [4]: 19 | minimal inhibitory concentration (MIC) Psa [5]: 14 | minimal inhibitory concentration (MIC) Candid [6]: 65.8 | minimal inhibitory concentration (MIC) E. Co (Escherichia coli (E. Co)): 3.27

R-G-G-R-V-C-Y-C-R-G-R-F-C-V-C-V-G-R (RGGRVCYCRGRFCVCVGR) [IB-398]
minimal inhibitory concentration (MIC) MRSA [4]: 8 | minimal inhibitory concentration (MIC) Psa [5]: 1

R-G-G-R-L-C-Y-A-R-R-R-F-A-V-C-V-G-R (RGGRLCYARRRFAVCVGR) [IB-289]
minimal inhibitory concentration (MIC) Psa [5]: 0.05 | minimal inhibitory concentration (MIC) Candid [6]: 1.6 | minimal inhibitory concentration (MIC) E. Co (Escherichia coli (E. Co)): 0.4

HNP-4: native human defensin (VCSCRLVFCRRTELRVGNCLIGGVSFTYCCTRV; ends and bridges not checked; cysteine pairing not given here; UniProt P12838 64-96, looked up) [reference compound]
gel formation in LAL test ([2]; 2.5 μg peptide in 0.2 ml): trace | gel formation in LAL test ([2]; 5 μg peptide in 0.2 ml): trace | gel formation in LAL test ([2]; 10 μg peptide in 0.2 ml): no gel

R-G-G-R-L-C-Y-C-R-P-R-F-C-V-C-V-G-R (RGGRLCYCRPRFCVCVGR-NH2; cysteine pairing not given here) [PG-5]
antimicrobial activity against E. coli compared to synthetic PG-1 (FIGS. 11a-11c) (E. coli ML-35P): comparable antimicrobial activity to PG-1 | antimicrobial activity against L. monocytogenes compared to synthetic PG-1 (FIGS. 11a-11c) [1]: comparable antimicrobial activity to PG-1 | antimicrobial activity against C. albicans compared to synthetic PG-1 (FIGS. 11a-11c) (C. albicans, strain 820): comparable antimicrobial activity to PG-1

HNP-2: native human defensin used as control (CYCRIPACIAGERRYGTCIYQGRLWAFCC; ends and bridges not checked; cysteine pairing not given here; UniProt P59665 66-94, looked up) [reference compound]
activity against Candida albicans in fetal calf serum (FIG. 5c) (C. albicans, strain 820; 90% fetal calf serum): lose their ability to inactivate C. albicans | gel formation in LAL test ([2]; 2.5 μg peptide in 0.2 ml): trace | gel formation in LAL test ([2]; 5 μg peptide in 0.2 ml): trace | gel formation in LAL test ([2]; 10 μg peptide in 0.2 ml): trace

R-G-G-G-L-C-Y-C-R-R-G-F-C-V-C-F-G-R (RGGGLCYCRRGFCVCFGR-NH2; cysteine pairing not given here) [IB-223]
minimal inhibitory concentration (MIC) MRSA [4]: 1.93 | minimal inhibitory concentration (MIC) Psa [5]: 0.14 | minimal inhibitory concentration (MIC) Candid [6]: 1.62

R-G-G-R-L-C-Y-C-R-R-R-F-C-V-C-V-G-R-OH (RGGRLCYCRRRFCVCVGR-OH; cysteine pairing not given here) [IB-247]
minimal inhibitory concentration (MIC) MRSA [4]: 1.5 | minimal inhibitory concentration (MIC) Psa [5]: 0.11 | minimal inhibitory concentration (MIC) Candid [6]: 1.2 | minimal inhibitory concentration (MIC) E. Co (Escherichia coli (E. Co)): 0.6

HNP-3: native human defensin [reference compound]
gel formation in LAL test ([2]; 10 μg peptide in 0.2 ml): no gel

R-G-G-R-V-C-Y-C-R-G-R-F-C-V-C-V-OH (RGGRVCYCRGRFCVCV-OH; cysteine pairing not given here) [IB-401]
minimal inhibitory concentration (MIC) MRSA [4]: 64 | minimal inhibitory concentration (MIC) Psa [5]: 1

R-G-G-R-V-C-Y-C-R-G-R-F-C-V-C-V (RGGRVCYCRGRFCVCV) [IB-400]
minimal inhibitory concentration (MIC) MRSA [4]: 8 | minimal inhibitory concentration (MIC) Psa [5]: 2

lysozyme [reference compound]
ESTIMATED MINIMAL FUNGICIDAL CONCENTRATIONS [7]: 75.0 µg/mL

R-G-G-G-L-C-Y-C-R-R-R-F-C-V-C-V-G-R-OH (RGGGLCYCRRRFCVCVGR-OH; cysteine pairing not given here) [IB-249]
minimal inhibitory concentration (MIC) Candid [6]: 3.29 | minimal inhibitory concentration (MIC) E. Co (Escherichia coli (E. Co)): 0.4

R-G-G-G-L-C-Y-C-F-P-K-F-C-V-C-V-G-R (RGGGLCYCFPKFCVCVGR-NH2; cysteine pairing not given here) [IB-218]
minimal inhibitory concentration (MIC) MRSA [4]: 3.48 | minimal inhibitory concentration (MIC) Psa [5]: 1.2 | minimal inhibitory concentration (MIC) Candid [6]: 15.96

R-G-G-G-L-C-Y-C-R-P-R-F-C-V-C-V-G-R-OH (RGGGLCYCRPRFCVCVGR-OH; cysteine pairing not given here) [IB-324]
minimal inhibitory concentration (MIC) Candid [6]: 17.7 | minimal inhibitory concentration (MIC) E. Co (Escherichia coli (E. Co)): 3.51

R-G-G-R-L-C-Y-A-R-R-R-F-A-V-C-V-G-R-OH (RGGRLCYARRRFAVCVGR-OH; cysteine pairing not given here) [IB-288]
minimal inhibitory concentration (MIC) Psa [5]: 0.05 | minimal inhibitory concentration (MIC) Candid [6]: 1.6 | minimal inhibitory concentration (MIC) E. Co (Escherichia coli (E. Co)): 0.4

R-G-G-G-L-C-Y-A-R-K-G-F-A-V-C-V-G-R (RGGGLCYARKGFAVCVGR-NH2; cysteine pairing not given here) [IB-227]
minimal inhibitory concentration (MIC) MRSA [4]: >128 | minimal inhibitory concentration (MIC) Psa [5]: 0.01 | minimal inhibitory concentration (MIC) E. Co (Escherichia coli (E. Co)): 2.65

R-G-G-G-L-C-Y-C-R-R-P-F-C-V-C-V-G-R (RGGGLCYCRRPFCVCVGR-NH2; cysteine pairing not given here) [IB-224]
minimal inhibitory concentration (MIC) MRSA [4]: 3.1 | minimal inhibitory concentration (MIC) Psa [5]: 0.06 | minimal inhibitory concentration (MIC) Candid [6]: 7.69 | minimal inhibitory concentration (MIC) E. Co (Escherichia coli (E. Co)): 0.15

R-G-G-R-L-C-Y-C-R-R-R-F-C-V-C-V-G-R (all †) ([dR]GG[dR][dL][dC][dY][dC][dR][dR][dR][dF][dC][dV][dC][dV]G[dR]-NH2; cysteine pairing not given here) [enantioPG-1]
inhibition of growth of E. coli (FIG. 12a) (E. coli ML-35P; absence of protease): equally effective | antibacterial effect in presence of protease (FIG. 12b) (E. coli ML-35P; trypsin or chymotrypsin, organism of FIG. 12b not stated): neither trypsin nor chymotrypsin inhibits the antibacterial effect | susceptibility of metronidazole-resistant clinical isolates [8]: susceptible

R-G-G-G-L-C-Y-T-R-P-R-F-T-V-C-V-G-R (RGGGLCYTRPRFTVCVGR-NH2; cysteine pairing not given here) [IB-226]
minimal inhibitory concentration (MIC) MRSA [4]: 8.7 | minimal inhibitory concentration (MIC) Psa [5]: 0.07 | minimal inhibitory concentration (MIC) E. Co (Escherichia coli (E. Co)): 1.53
